Assays:
FLT3 = FLT3 (Homo sapiens (Human), UniProt P36888); assay: Enzyme inhibition FLT3; assay type: biochemical; settings: read-out: IC50 value of inhibition against FLT3
Description: (§1) In addition, the inhibitory activities of the compounds of the present disclosure against enzyme ABL1, FLT3 and PIM1 were also tested.

CDK4/Cyclin D1 = CDK4/Cyclin D1 (Homo sapiens (Human), UniProt P11802); assay: Biochemical kinase inhibition test, CDK4/Cyclin D1 (32P-ATP, Rb substrate); settings: recombinant CDK4/Cyclin D1; 10 μM ATP; read-out: CDK4/Cydin D1 IC50
Description: (§2) Potency determination of biochemical kinase inhibition test. Kinase activity test and IC50 determination. […] The kinase reaction was initiated by adding 1 μg (1.5 μM) of recombinant retinoblastoma protein, […] and 10μ Ci γ-32P-ATP. The reaction was incubated at 30° C. for 20 minutes, and was terminated by adding 2×Laemmli sample buffer, heated at 95° C. for three minutes, and the resulting solution was dissolved with 12% acrylamide SDS-PAGE and autoradiographed. A densitometer (Bio-Rad) was used to quantify the corresponding phosphorylated substrate protein bands. […] These reactions took place in the presence of 10 μM ATP.

PIM1 = PIM1 (Homo sapiens (Human), UniProt P11309); assay: Enzyme inhibition PIM1; assay type: biochemical; settings: read-out: IC50 value of inhibition against PIM1
Description: as §1

CDK6/cyclin D1 = CDK6/cyclin D1 (Homo sapiens (Human), UniProt Q00534); assay: Biochemical kinase inhibition test, CDK6/cyclin D1 (similar method); settings: for IC50: CDK6/cyclin D1, 10 μM ATP, read-out: CDK6/Cyelin D1 IC50; for selectivity for CDK6/cyclin D1 relative to CDK4/cyclin D1: enzyme inhibitory activity, CDK6/cyclin D1 vs CDK4/cyclin D1
Description: as §2

Sequence of FLT3 (P36888 27-993, species assumed): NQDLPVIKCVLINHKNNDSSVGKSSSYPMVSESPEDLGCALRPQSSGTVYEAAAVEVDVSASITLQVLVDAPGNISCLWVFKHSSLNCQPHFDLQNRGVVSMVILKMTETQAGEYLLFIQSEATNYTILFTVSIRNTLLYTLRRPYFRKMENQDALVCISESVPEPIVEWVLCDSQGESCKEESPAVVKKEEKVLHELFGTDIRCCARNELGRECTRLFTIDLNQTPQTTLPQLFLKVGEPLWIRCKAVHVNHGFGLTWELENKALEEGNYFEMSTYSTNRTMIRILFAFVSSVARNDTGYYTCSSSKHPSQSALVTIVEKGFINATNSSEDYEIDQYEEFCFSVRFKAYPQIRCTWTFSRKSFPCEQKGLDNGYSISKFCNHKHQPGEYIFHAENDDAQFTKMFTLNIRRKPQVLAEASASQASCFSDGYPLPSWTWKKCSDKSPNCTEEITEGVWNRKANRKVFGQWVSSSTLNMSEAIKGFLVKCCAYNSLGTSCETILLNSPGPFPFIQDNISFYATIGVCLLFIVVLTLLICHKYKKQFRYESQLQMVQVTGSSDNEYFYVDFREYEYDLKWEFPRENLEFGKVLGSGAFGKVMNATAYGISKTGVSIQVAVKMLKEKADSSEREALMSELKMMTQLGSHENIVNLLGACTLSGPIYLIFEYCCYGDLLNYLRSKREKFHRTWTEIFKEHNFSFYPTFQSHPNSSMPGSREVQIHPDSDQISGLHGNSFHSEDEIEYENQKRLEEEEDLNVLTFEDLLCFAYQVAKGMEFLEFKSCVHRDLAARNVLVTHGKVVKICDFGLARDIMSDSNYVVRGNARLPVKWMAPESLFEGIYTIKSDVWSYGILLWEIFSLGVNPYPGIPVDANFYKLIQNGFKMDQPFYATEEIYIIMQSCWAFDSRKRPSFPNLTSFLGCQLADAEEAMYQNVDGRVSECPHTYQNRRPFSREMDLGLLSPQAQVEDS
Sequence of CDK4/Cyclin D1 (P11802 whole entry): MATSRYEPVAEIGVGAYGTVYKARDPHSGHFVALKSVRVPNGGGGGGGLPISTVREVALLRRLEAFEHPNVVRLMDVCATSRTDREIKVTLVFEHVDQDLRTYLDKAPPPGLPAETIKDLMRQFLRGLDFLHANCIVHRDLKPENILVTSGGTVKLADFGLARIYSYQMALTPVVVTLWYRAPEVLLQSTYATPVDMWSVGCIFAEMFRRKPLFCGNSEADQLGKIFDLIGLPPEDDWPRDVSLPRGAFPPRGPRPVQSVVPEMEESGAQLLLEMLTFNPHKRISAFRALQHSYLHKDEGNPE
Sequence of CDK4/Cyclin D1 (P24385 whole entry partner): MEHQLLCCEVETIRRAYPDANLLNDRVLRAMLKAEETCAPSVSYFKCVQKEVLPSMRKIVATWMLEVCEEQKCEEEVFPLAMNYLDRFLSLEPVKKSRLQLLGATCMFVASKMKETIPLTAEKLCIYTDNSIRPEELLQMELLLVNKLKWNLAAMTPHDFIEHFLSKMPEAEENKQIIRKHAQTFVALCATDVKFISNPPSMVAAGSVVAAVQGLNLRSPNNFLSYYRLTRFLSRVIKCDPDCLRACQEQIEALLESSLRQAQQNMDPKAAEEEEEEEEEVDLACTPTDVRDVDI
Sequence of CDK6/cyclin D1 (Q00534 whole entry, species assumed): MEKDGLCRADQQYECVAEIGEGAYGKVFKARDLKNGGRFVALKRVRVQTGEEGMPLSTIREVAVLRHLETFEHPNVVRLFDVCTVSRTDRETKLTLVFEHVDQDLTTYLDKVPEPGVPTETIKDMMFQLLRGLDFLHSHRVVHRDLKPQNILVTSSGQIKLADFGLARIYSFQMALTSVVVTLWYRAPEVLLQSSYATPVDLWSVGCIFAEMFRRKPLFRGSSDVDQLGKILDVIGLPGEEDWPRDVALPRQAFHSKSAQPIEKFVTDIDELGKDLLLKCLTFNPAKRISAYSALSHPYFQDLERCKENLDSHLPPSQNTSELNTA
Sequence of CDK6/cyclin D1 (P24385 whole entry partner, species assumed): as the sequence (P24385 whole entry partner) above
Sequence of PIM1 (P11309 whole entry, species assumed): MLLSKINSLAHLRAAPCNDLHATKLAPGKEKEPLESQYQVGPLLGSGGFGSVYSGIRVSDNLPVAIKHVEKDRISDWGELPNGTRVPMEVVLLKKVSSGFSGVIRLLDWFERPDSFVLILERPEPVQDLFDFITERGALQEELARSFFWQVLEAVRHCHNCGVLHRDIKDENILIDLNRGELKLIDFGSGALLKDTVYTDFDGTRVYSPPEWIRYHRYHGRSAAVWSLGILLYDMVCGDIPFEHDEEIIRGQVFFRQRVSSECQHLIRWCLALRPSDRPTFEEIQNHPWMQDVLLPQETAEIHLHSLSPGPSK

Row | SMILES | IC50 (FLT3) | IC50 (CDK4/Cyclin D1) | IC50 (PIM1) | IC50 (CDK6/cyclin D1) | selectivity for CDK6/cyclin D1 relative to CDK4/cyclin D1 (CDK6/cyclin D1)
1 | CC(C)c1cnc2ccc3cnc(Nc4ccc(N5CCNCC5)cn4)nc3n12.Cl [Compound I-1, 9-Isopropyl-N-(5-(piperazin-1-yl)pyridin-2-yl)imidazo[1′,2′:1,6]pyrido[2,3-d]pyrimidin-2-amine hydrochloride] | < 0.005 µM | 0.001 to 0.005 µM | < 0.05 µM | < 0.001 µM | more than 5 times
2 | CC(C)c1cnc2ccc3cnc(Nc4ccc(N5CCN(C)CC5)cn4)nc3n12 [Compound I-2, 9-Isopropyl-N-(5-(4-methylpiperazin-1-yl)pyridin-2-yl)imidazo[1′,2′:1,6]pyrido[2,3-d]pyrimidin-2-amine] |  | < 0.001 µM |  | < 0.001 µM | 
3 | Cc1cc(Nc2ncc3ccc4ncc(C(C)C)n4c3n2)ncc1N1CCN(C)CC1 [Compound I-3] |  | 0.005 to 0.01 µM |  | 0.005 to 0.01 µM | 
4 | Cc1nc(Nc2ncc3ccc4ncc(C(C)C)n4c3n2)ccc1N1CCN(C)CC1 [Compound I-4] |  | 0.005 to 0.01 µM |  | 0.005 to 0.01 µM | 
5 | CCN1CCN(c2ccc(Nc3ncc4ccc5ncc(C(C)C)n5c4n3)nc2)CC1 [Compound I-5] |  | < 0.001 µM |  | < 0.001 µM | 
6 | CCN1CCN(c2cnc(Nc3ncc4ccc5ncc(C(C)C)n5c4n3)cc2C)CC1 [Compound I-6] |  | 0.01 to 0.02 µM |  | 0.005 to 0.01 µM | 2-3 times
7 | CCN1CCN(c2ccc(Nc3ncc4ccc5ncc(C(C)C)n5c4n3)nc2C)CC1 [Compound I-7] |  | 0.005 to 0.01 µM |  | 0.005 to 0.01 µM | 2-3 times
8 | Cc1cc(Nc2ncc3ccc4ncc(C(C)C)n4c3n2)ncc1N1CCNCC1.Cl [Compound I-8] | < 0.005 µM | 0.001 to 0.005 µM | < 0.05 µM | < 0.001 µM | more than 5 times
9 | Cc1nc(Nc2ncc3ccc4ncc(C(C)C)n4c3n2)ccc1N1CCNCC1.Cl [Compound I-9] | < 0.005 µM | 0.005 to 0.01 µM | < 0.05 µM | < 0.001 µM | more than 10 times
10 | CC(C)c1cnc2ccc3cnc(Nc4ccc(N5CCN[C@@H](C)C5)cn4)nc3n12 [Compound I-10] |  | 0.005 to 0.01 µM |  | 0.005 to 0.01 µM | 
11 | CC(C)c1cnc2ccc3cnc(Nc4ccc(N5CCNC(C)(C)C5)cn4)nc3n12 [Compound I-11] |  | 0.005 to 0.01 µM |  | 0.005 to 0.01 µM | 
12 | CC(C)c1cnc2ccc3cnc(Nc4ccc(N5C[C@@H](C)N[C@@H](C)C5)cn4)nc3n12 [Compound I-12] |  | 0.005 to 0.01 µM |  | 0.005 to 0.01 µM | 
13 | CC(C)c1cnc2ccc3cnc(Nc4cc(F)c(N5CCNCC5)cn4)nc3n12.Cl [Compound I-13] |  | 0.01 to 0.02 µM |  | 0.005 to 0.01 µM | 2-3 times
14 | CC(C)c1cnc2ccc3cnc(Nc4ccc(N5CCNCC5)c(F)n4)nc3n12.Cl [Compound I-14] |  | 0.02 to 0.05 µM |  | 0.01 to 0.02 µM | 2-3 times
15 | CC(C)c1cnc2ccc3cnc(Nc4ccc(N5CCCNCC5)cn4)nc3n12 [Compound I-15] |  | 0.02 to 0.05 µM |  | 0.02 to 0.05 µM | 
16 | CC(C)c1cnc2ccc3cnc(Nc4ccc(N5CCCCC5)cn4)nc3n12 [Compound I-16] |  | 0.02 to 0.05 µM |  | 0.02 to 0.05 µM | 
17 | CC(C)c1cnc2ccc3cnc(Nc4ccc(N5CCOCC5)cn4)nc3n12 [Compound I-17] | < 0.005 µM | 0.005 to 0.01 µM | < 0.05 µM | < 0.001 µM | more than 10 times
18 | Cc1cc(Nc2ncc3ccc4ncc(C(C)C)n4c3n2)ncc1N1CCOCC1 [Compound I-18] | < 0.005 µM | 0.01 to 0.02 µM | < 0.05 µM | 0.001 to 0.005 µM | about 4 times
19 | Cc1nc(Nc2ncc3ccc4ncc(C(C)C)n4c3n2)ccc1N1CCOCC1 [Compound I-19] |  | 0.005 to 0.01 µM |  | 0.005 to 0.01 µM | 
20 | CC1CN(c2ccc(Nc3ncc4ccc5ncc(C(C)C)n5c4n3)nc2)CCO1 (stereo not drawn) [Compound I-20] |  | 0.005 to 0.01 µM |  | 0.005 to 0.01 µM | 

Row | SMILES | IC50 (FLT3) | IC50 (CDK4/Cyclin D1) | IC50 (PIM1) | IC50 (CDK6/cyclin D1) | selectivity for CDK6/cyclin D1 relative to CDK4/cyclin D1 (CDK6/cyclin D1)
21 | CC(C)c1cnc2ccc3cnc(Nc4ccc(N5C[C@@H](C)O[C@@H](C)C5)cn4)nc3n12 [Compound I-21] |  | 0.02 to 0.05 µM |  | 0.01 to 0.02 µM | 2-3 times
22 | CC(C)c1cnc2ccc3cnc(Nc4ccc(N5CCC6(CCNCC6)C5)cn4)nc3n12 [Compound I-22] |  | 0.02 to 0.05 µM |  | 0.02 to 0.05 µM | 
23 | CC(C)c1cnc2ccc3cnc(Nc4ccc(N5CCC6(CNC6)C5)cn4)nc3n12 [Compound I-23] |  | 0.02 to 0.05 µM |  | 0.02 to 0.05 µM | 
24 | CC(C)c1cnc2ccc3cnc(Nc4ccc(N5CC6(CNC6)C5)cn4)nc3n12 [Compound I-24] |  | 0.02 to 0.05 µM |  | 0.02 to 0.05 µM | 
25 | CC(C)c1cnc2ccc3cnc(Nc4ccc(N5CCC6(CC5)CNC6)cn4)nc3n12 [Compound I-25] |  | 0.02 to 0.05 µM |  | 0.02 to 0.05 µM | 
26 | CC(C)c1cnc2ccc3cnc(Nc4ccc(N5CC6(CCNCC6)C5)cn4)nc3n12 [Compound I-26] |  | 0.02 to 0.05 µM |  | 0.02 to 0.05 µM | 
27 | CC(C)c1cnc2ccc3cnc(Nc4ccc(N5CCNCC5)cc4F)nc3n12 [Compound I-27] |  | 0.05 to 0.1 µM |  | 0.05 to 0.1 µM | 
28 | COc1cc(OCCN(C)C)ccc1Nc1ncc2ccc3ncc(C(C)C)n3c2n1 [Compound I-28] |  | 0.05 to 0.1 µM |  | 0.05 to 0.1 µM | 
29 | COc1cc(OC2CCN(C)CC2)ccc1Nc1ncc2ccc3ncc(C(C)C)n3c2n1 [Compound I-29] |  | 0.05 to 0.1 µM |  | 0.05 to 0.1 µM | 
30 | COc1ccc2cc(Nc3ncc4ccc5ncc(C(C)C)n5c4n3)ccc2n1 [Compound I-30] |  | 0.05 to 0.1 µM |  | 0.05 to 0.1 µM | 
31 | Cl.c1cc(Nc2ncc3ccc4ncc(C5CCCC5)n4c3n2)ncc1N1CCNCC1 [Compound I-31] | < 0.005 µM | 0.001 to 0.005 µM | < 0.05 µM | < 0.001 µM | more than 5 times
32 | CCN1CCN(c2cnc(Nc3ncc4ccc5ncc(C6CCCC6)n5c4n3)cc2C)CC1 [Compound I-32] |  | 0.005 to 0.01 µM |  | 0.005 to 0.01 µM | 
33 | Cc1cc(Nc2ncc3ccc4ncc(C5CCCC5)n4c3n2)ncc1N1CCNCC1.Cl [Compound I-33] | < 0.005 µM | 0.005 to 0.01 µM | < 0.05 µM | < 0.001 µM | more than 10 times
34 | Cc1nc(Nc2ncc3ccc4ncc(C5CCCC5)n4c3n2)ccc1N1CCNCC1.Cl [Compound I-34] | < 0.005 µM | 0.005 to 0.01 µM | < 0.05 µM | < 0.001 µM | more than 10 times
35 | C[C@@H]1CN(c2ccc(Nc3ncc4ccc5ncc(C6CCCC6)n5c4n3)nc2)C[C@H](C)N1 [Compound I-35] |  | 0.005 to 0.01 µM |  | 0.005 to 0.01 µM | 
36 | Fc1cc(Nc2ncc3ccc4ncc(C5CCCC5)n4c3n2)ncc1N1CCNCC1 [Compound I-36] |  | 0.01 to 0.02 µM |  | 0.01 to 0.02 µM | 
37 | Fc1nc(Nc2ncc3ccc4ncc(C5CCCC5)n4c3n2)ccc1N1CCNCC1 [Compound I-37] |  | 0.005 to 0.01 µM |  | 0.005 to 0.01 µM | 
38 | Cc1cc(Nc2ncc3ccc4ncc(C5CCCC5)n4c3n2)ncc1N1CCOCC1 [Compound I-38] | < 0.005 µM | 0.01 to 0.02 µM | < 0.05 µM | 0.001 to 0.005 µM | about 4 times
39 | C[C@@H]1CN(c2ccc(Nc3ncc4ccc5ncc(C6CCCC6)n5c4n3)nc2)C[C@H](C)O1 [Compound I-39] |  | 0.02 to 0.05 µM |  | 0.01 to 0.02 µM | 2-3 times

Reference: patent publication US11091485B2, “Imidazo[1′,2′:1,6]pyrido[2,3-d]pyrimidine compound as protein kinase inhibitor” (SHENGKE PHARMACEUTICALS (JIANGSU) LTD., priority 2017, dated 2021)
